Reference: patent US11178868B2, “Alkynyl-substituted 3-phenylpyrrolidine-2,4-diones and use thereof as herbicides” (Bayer CropScience Aktiengesellschaft, priority 2015, dated 2021)

Legend:
Assay type in all cases: in vivo
Avena fatua [1] = assay: Pre-emergence herbicidal effect; details: scored visually after 3 weeks
Source text: (§1) Seeds of monocotyledonous and dicotyledonous weed plants and crop plants are laid out in wood-fibre pots in sandy loam and covered with soil. The compounds according to the invention formulated in the form of wettable powders (WP) or as emulsion concentrates (EC) are then applied as aqueous suspension or emulsion at a water application rate of 600 to 800 I/ha (converted) with the addition of 0.2% wetting agent to the surface of the covering soil. After the treatment, the pots are placed in a greenhouse and kept under good growth conditions for the trial plants. The damage to the test plants is scored visually after a test period of 3 weeks by comparison with untreated controls (herbicidal activity in percent (%): 100% activity=the plants have died, 0% activity=like control plants).

Lolium multiflorum [2] = assay: Pre-emergence herbicidal effect; details: scored visually after 3 weeks
Source text: as §1

Alopecurus myosuroides [3] = assay: Pre-emergence herbicidal effect; details: scored visually after 3 weeks
Source text: as §1

Setaria viridis [4] = assay: Pre-emergence herbicidal effect; details: scored visually after 3 weeks
Source text: as §1

Echinochloa crus-galli [5] = assay: Pre-emergence herbicidal effect; details: scored visually after 3 weeks
Source text: as §1

Avena fatua [6] = assay: Post-emergence herbicidal effect; details: assessed visually after about 3 weeks
Protocol: (§2) Seeds of monocotyledonous and dicotyledonous weed and crop plants are laid out in sandy loam in wood-fibre pots, covered with soil and cultivated in a greenhouse under good growth conditions. 2 to 3 weeks after sowing, the test plants are treated at the one-leaf stage. The compounds according to the invention, formulated in the form of wettable powders (WP) or as emulsion concentrates (EC), are then sprayed as aqueous suspension or emulsion at a water application rate of 600 to 800 I/ha (converted) with the addition of 0.2% of wetting agent onto the green parts of the plants. After the test plants have been left to stand in the greenhouse under optimal growth conditions for about 3 weeks, the action of the preparations is assessed visually in comparison to untreated controls (herbicidal action in percent (%): 100% activity=the plants have died, 0% activity=like control plants).

Lolium multiflorum [7] = assay: Post-emergence herbicidal effect; details: assessed visually after about 3 weeks
Protocol: as §2

Alopecurus myosuroides [8] = assay: Post-emergence herbicidal effect; details: assessed visually after about 3 weeks
Protocol: as §2

Setaria viridis [9] = assay: Post-emergence herbicidal effect; details: assessed visually after about 3 weeks
Protocol: as §2

Echinochloa crus-galli [10] = assay: Post-emergence herbicidal effect; details: assessed visually after about 3 weeks
Protocol: as §2

Structure (SMILES) | Herbicidal effect against [%] AVEFA (Avena fatua [1]; 320 g a.i./ha) | Herbicidal effect against [%] LOLMU (Lolium multiflorum [2]; 80 g a.i./ha) | Herbicidal effect against [%] LOLMU (Lolium multiflorum [2]; 320 g a.i./ha) | Herbicidal effect against [%] ALOMY (Alopecurus myosuroides [3]; 80 g a.i./ha) | Herbicidal effect against [%] ALOMY (Alopecurus myosuroides [3]; 320 g a.i./ha) | Herbicidal effect against [%] SETVI (Setaria viridis [4]; 80 g a.i./ha) | Herbicidal effect against [%] SETVI (Setaria viridis [4]; 320 g a.i./ha) | Herbicidal effect against [%] ECHCG (Echinochloa crus-galli [5]; 80 g a.i./ha) | Herbicidal effect against [%] ECHCG (Echinochloa crus-galli [5]; 320 g a.i./ha) | Herbicidal effect against [%] AVEFA (Avena fatua [6]; 20 g a.i./ha) | Herbicidal effect against [%] AVEFA (Avena fatua [6]; 80 g a.i./ha) | Herbicidal effect against [%] LOLMU (Lolium multiflorum [7]; 20 g a.i./ha) | Herbicidal effect against [%] LOLMU (Lolium multiflorum [7]; 80 g a.i./ha) | Herbicidal effect against [%] ALOMY (Alopecurus myosuroides [8]; 20 g a.i./ha) | Herbicidal effect against [%] ALOMY (Alopecurus myosuroides [8]; 80 g a.i./ha) | Herbicidal effect against [%] SETVI (Setaria viridis [9]; 20 g a.i./ha) | Herbicidal effect against [%] SETVI (Setaria viridis [9]; 80 g a.i./ha) | Herbicidal effect against [%] ECHCG (Echinochloa crus-galli [10]; 20 g a.i./ha) | Herbicidal effect against [%] ECHCG (Echinochloa crus-galli [10]; 80 g a.i./ha) | Herbicidal effect against [%] AVEFA (Avena fatua [1]; 80 g a.i./ha)
CC#Cc1ccc(C2=C(O)C3(CCCC(OCCOC)C3)NC2=O)c(CC)c1 (stereo not shown) [Example D7] | 100% | 100% | 100% | 100% | 100% | 100% | 100% | 100% | 100% | 100% | 100% | 100% | 100% | 100% | 100% | 100% | 100% | 100% | 100% | –
CC#Cc1cc(CC)c(C2=C(O)C3(CCCC(OCC)C3)NC2=O)c(CC)c1 (stereo not shown) [Example D1] | 100% | 100% | 100% | 100% | 100% | 100% | 100% | 100% | 100% | – | – | – | 90% | 80% | 100% | 90% | 100% | 100% | 100% | 80%
CC#Cc1cc(CC)c(C2=C(O)C3(CCCC(OCCOC)C3)NC2=O)c(CC)c1 (stereo not shown) [Example D5] | 100% | 100% | 100% | 100% | 100% | 100% | 100% | 100% | 100% | 100% | 100% | 100% | 100% | 100% | 100% | 100% | 100% | 100% | 100% | 100%
CC#Cc1cc(CC)c(C2=C(OC(=O)C(C)C)C3(CCCC(OCCOC)C3)NC2=O)c(CC)c1 (stereo not shown) [Example P12] | 100% | 100% | 100% | 100% | 100% | 100% | 100% | 100% | 100% | 100% | 100% | 100% | 100% | 100% | 100% | 100% | 100% | 100% | 100% | 100%
CC#Cc1cc(CC)c(C2=C(OC(=O)OCC)C3(CCCC(OCC)C3)NC2=O)c(CC)c1 (single isomer, unassigned) [Example P2] | 100% | 100% | 100% | 100% | 100% | 100% | 100% | 100% | 100% | – | – | – | – | – | – | – | – | – | 80% | 100%
CC#Cc1cc(C)c(C2=C(O)C3(CCCC(OCC)C3)NC2=O)c(C)c1 (stereo not shown) [Example D2] | 100% | 100% | 100% | 100% | 100% | 100% | 100% | 100% | 100% | – | – | – | 100% | – | 90% | – | 90% | 90% | 100% | 80%
C#Cc1cc(C)c(C2=C(OC(=O)OCC)C3(CCCC(OCCCC)C3)NC2=O)c(C)c1 (stereo not shown) [Example P5] | 80% | 90% | 100% | 80% | 100% | 90% | 100% | 90% | 100% | – | – | – | – | – | – | – | – | – | – | –
C#Cc1cc(CC)c(C2=C(O)C3(CCCC(OCCOC)C3)NC2=O)c(CC)c1 (stereo not shown) [Example D10] | 100% | – | – | 90% | 100% | 100% | 100% | 100% | 100% | 80% | 90% | – | – | 90% | 90% | – | – | 90% | 90% | 90%
C#Cc1cc(C)c(C2=C(OC(=O)C(C)C)C3(CCCC(OCCCC)C3)NC2=O)c(C)c1 (stereo not shown) [Example P6] | – | – | 100% | – | 80% | – | 100% | – | 90% | – | – | – | – | – | – | – | – | – | – | –
CC#Cc1cc(CC)c(C2=C(OC(=O)C(C)C)C3(CCCC(OCC)C3)NC2=O)c(CC)c1 (stereo not shown) [Example P3] | 80% | 100% | 100% | 90% | 100% | 100% | 100% | 100% | 100% | – | – | – | – | – | – | – | – | – | 90% | –
